This assay addresses T1, Enterobacter soli LF7 MarR_Es (Enterobacter soli, UniProt A0AAW8H3I9, A146S).
T1 sequence (A0AAW8H3I9 1-157 A146S): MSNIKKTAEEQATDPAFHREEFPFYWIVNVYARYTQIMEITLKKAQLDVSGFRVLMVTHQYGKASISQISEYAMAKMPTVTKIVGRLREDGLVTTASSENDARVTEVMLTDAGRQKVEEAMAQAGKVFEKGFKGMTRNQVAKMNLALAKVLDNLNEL
Nature of the assay: ITC IAA binding to MarR_Es. To be noted: 25 °C, IacR, read-out: KD1.

The structures appear in SMILES notation.

Procedure: All ITC measurements were performed at 25 °C using an Auto-ITC200 microcalorimeter (MicroCal/GE Healthcare). The buffer employed was 20 mM HEPES, pH 7.4, 50 mM NaCl and 0.5% dimethly sulfoxide (DMSO) for protein/ligand binding and 20 mM HEPES, pH 7.4 and 300 mM NaCl for DNA/protein binding experiments. For ligand binding experiments, the calorimetry cell (volume 200 ml) was loaded with MarR wild-type, mutant or homologue protein at a concentration of 50 μM. The syringe was loaded with a ligand concentration of 0.5 or 2 mM. […] A typical injection protocol included a single 0.2 μl first injection followed by 20 1.5 μl injections of the syringe sample into the calorimetry cell. The spacing between injections was kept at 180 s and the reference power at 8 μcal s^−1. The data were analysed using Origin for ITC version 7.0 software supplied by the manufacturer and fit well to a one-site binding model. Two independent ITC measurements were performed for each condition.

For the molecule `O=C(O)Cc1c[nH]c2ccccc12` [IAA, indole-3-acetic acid], the Kd came to 2910 ± 96 nM.

These data come from paper PMC9613470, “Diverse MarR bacterial regulators of auxin catabolism in the plant microbiome” (Nature Microbiology, 2022).
